US20260159512A1, “BCAT2 INHIBITORS” (AGIOS PHARMACEUTICALS, INC., priority 2021, published 2026)

What was measured:
[1] = molecular target: T1, BCAT2 (Homo sapiens, UniProt O15382); test: BCAT2 in vitro cell inhibition using engineered A549 cells (KMV cell assay, 13C6-KMV by LC-MS/MS); format: cell-based; set-up: The result was an engineered A549 cell line that expressed endogenous BCAT2; endogenous in cells; host or cells: A549 cells with MUT and BCAT1 knocked out by CRISPR/CAS9; key to BCAT2 Cell Inhibition: A: less than or equal to 0.100 μM; B: greater than 0.100 and less than or equal to 0.500 μM; C: greater than 0.500 and less than or equal to 1.000 μM; d: greater than 1.000 μM; E: no fit; conditions: average where tested multiple times
T1 sequence (O15382 28-392): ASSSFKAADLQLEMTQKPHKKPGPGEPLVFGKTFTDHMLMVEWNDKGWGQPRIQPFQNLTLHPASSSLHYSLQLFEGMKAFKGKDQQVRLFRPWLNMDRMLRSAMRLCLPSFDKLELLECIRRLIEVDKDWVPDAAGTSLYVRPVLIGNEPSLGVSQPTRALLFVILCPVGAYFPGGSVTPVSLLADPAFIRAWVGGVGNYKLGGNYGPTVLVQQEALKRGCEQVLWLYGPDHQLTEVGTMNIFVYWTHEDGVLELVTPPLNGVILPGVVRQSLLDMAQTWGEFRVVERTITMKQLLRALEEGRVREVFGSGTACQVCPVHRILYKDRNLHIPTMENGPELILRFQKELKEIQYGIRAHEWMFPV

[2] = molecular target: T1, BCAT2; test: BCAT2 in vitro enzyme inhibition assay (resazurin/diaphorase-coupled fluorescence); format: biochemical; set-up: key to BCAT2 Enzyme Inhibition: A: less than or equal to 0.100 μM; B: greater than 0.100 and less than or equal to 0.500 μM; C: greater than 0.500 and less than or equal to 1.000 μM; d: greater than 1.000 μM; E: no fit; conditions: average where tested multiple times
Method in brief: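 Coupled fluorescence readout: glutamate formed from L-leucine/α-ketoglutarate transamination drives GDH/NAD/diaphorase reduction of resazurin (Ex 540/Em 590). Human BCAT2 was first exposed 1 h at room temperature to compound, top final 100 μM in 3-fold, 10-point series; substrate reaction ran 1 h before SDS quench, in technical duplicate with DMSO max and enzyme-free min controls.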

With `CO[C@H]1C[C@@H](NC(=O)c2ncc(Cl)s2)C[C@@H](n2c(CC(C)C)nc3cnc(-n4nccn4)cc32)C1` (single isomer, unassigned) [Example 440] the “BCAT2 Cell Inhibition” value [1] was “E” and the IC50 [2] was 500 to 1000 nM.
With `CC(C)(Cc1nc2cnc(-n3nccn3)cc2n1[C@@H]1CCC[C@H](NC(=O)c2ccc(Cl)s2)C1)C(=O)O` [Example 190, 3-(1-((1R,3S)-3-(5-chlorothiophene-2-carboxamido)cyclohexyl)-6-(2H-1,2,3-triazol-2-yl)-1H-imidazo[4,5-c]pyridin-2-yl)-2,2-dimethylpropanoic acid] the “BCAT2 Cell Inhibition” value [1] was “E” and the IC50 [2] was > 1000 nM.
In the case of `O=C(N[C@H]1CCC[C@@H](n2c(C3COCCO3)nc3cnc(-c4nc[nH]n4)cc32)C1)c1ncc(Cl)s1` (single isomer, unassigned) [Example 177], the “BCAT2 Cell Inhibition” value [1] is reported as “E” and the IC50 [2] is reported as 500 to 1000 nM.
With `CC(C)Cc1nc2cnc(-c3ccccn3)cc2n1[C@H]1CCC[C@@H](NC(=O)c2ncc(Cl)s2)[C@@H]1O` [Example 236, 5-chloro-N-((1R,2S,3S)-2-hydroxy-3-(2-isobutyl-6-(pyridin-2-yl)-1H-imidazo[4,5-c]pyridin-1-yl)cyclohexyl)thiazole-2-carboxamide] the “BCAT2 Cell Inhibition” value [1] was “E” and the IC50 [2] was 500 to 1000 nM.
In the case of `O=C(N[C@@H]1CCC[C@H](n2c(-c3ccccc3F)nc3cnc(-c4ncco4)cc32)[C@H]1O)c1ncc(Cl)s1` [Example 249, 5-chloro-N-((1R,2S,3S)-3-(2-(2-fluorophenyl)-6-(oxazol-2-yl)-1H-imidazo[4,5-c]pyridin-1-yl)-2-hydroxycyclohexyl)thiazole-2-carboxamide], the IC50 [1] is reported as 500 to 1000 nM and the IC50 [2] is reported as 100 to 500 nM.
In the case of `CC(C)Cc1nc2cnc(N3CCC[C@@H]3C#N)cc2n1[C@@H]1CCC[C@H](NC(=O)c2ncc(Cl)s2)C1` [Example 310, 5-chloro-N-((1S,3R)-3-(6-((R)-2-cyanopyrrolidin-1-yl)-2-isobutyl-1H-imidazo[4,5-c]pyridin-1-yl)cyclohexyl)thiazole-2-carboxamide], the “BCAT2 Cell Inhibition” value [1] is reported as “E” and the IC50 [2] is reported as > 1000 nM.
`COC(=O)N[C@H](c1nc2cnc(-c3nc[nH]n3)cc2n1[C@@H]1CCC[C@H](NC(=O)c2ncc(Cl)s2)C1)C(C)C` [Example 370, methyl ((S)-1-(1-((1R,3S)-3-(5-chlorothiazole-2-carboxamido)cyclohexyl)-6-(1H-1,2,4-triazol-3-yl)-1H-imidazo[4,5-c]pyridin-2-yl)-2-methylpropyl)carbamate] was tested, and the “BCAT2 Cell Inhibition” value [1] was “E” and the IC50 [2] was > 1000 nM.
With `CC(C)C(F)(F)c1nc2cnc(-c3ccccn3)cc2n1[C@@H]1CCC[C@H](NC(=O)c2ncc(Cl)s2)C1` [Example 318, 5-chloro-N-((1S,3R)-3-(2-(1,1-difluoro-2-methylpropyl)-6-(pyridin-2-yl)-1H-imidazo[4,5-c]pyridin-1-yl)cyclohexyl)thiazole-2-carboxamide] the “BCAT2 Cell Inhibition” value [1] was “E” and the IC50 [2] was 500 to 1000 nM.
With `O=C(N[C@H]1CCC[C@@H](n2c(-c3ccccc3F)nc3cnc(-c4ncnn4C(F)F)cc32)C1)c1ncc(Cl)s1` [Example 376, 5-chloro-N-((1S,3R)-3-(6-(1-(difluoromethyl)-1H-1,2,4-triazol-5-yl)-2-(2-fluorophenyl)-1H-imidazo[4,5-c]pyridin-1-yl)cyclohexyl)thiazole-2-carboxamide] the “BCAT2 Cell Inhibition” value [1] was “E” and the IC50 [2] was 500 to 1000 nM.
For `CC(C)Oc1nc2cnc(-n3ccnn3)cc2n1[C@@H]1CCC[C@H](NC(=O)c2ncc(C(F)F)s2)C1` [Example 97, 5-(difluoromethyl)-N-((1S,3R)-3-(2-isopropoxy-6-(1H-1,2,3-triazol-1-yl)-1H-imidazo[4,5-c]pyridin-1-yl)cyclohexyl)thiazole-2-carboxamide], the “BCAT2 Cell Inhibition” value [1] was “E” and the IC50 [2] was > 1000 nM.
With `O=C(N[C@H]1CCC[C@@H](n2c(Oc3cc[nH]n3)nc3cnc(-c4nc[nH]n4)cc32)C1)c1ncc(Cl)s1` [Example 191, N-((1S,3R)-3-(2-((1H-pyrazol-3-yl)oxy)-6-(1H-1,2,4-triazol-3-yl)-1H-imidazo[4,5-c]pyridin-1-yl)cyclohexyl)-5-chlorothiazole-2-carboxamide] the “BCAT2 Cell Inhibition” value [1] was “E” and the IC50 [2] was > 1000 nM.
With `CC(C)Cc1nc2cnc(-c3ccccc3C#N)cc2n1[C@@H]1CCC[C@H](NC(=O)c2ncc(Cl)s2)C1` [Example 335, 5-chloro-N-((1S,3R)-3-(6-(2-cyanophenyl)-2-isobutyl-1H-imidazo[4,5-c]pyridin-1-yl)cyclohexyl)thiazole-2-carboxamide] the “BCAT2 Cell Inhibition” value [1] was “E” and the IC50 [2] was 100 to 500 nM.
With `CO[C@@H]1[C@H](NC(=O)c2ncc(Cl)s2)CCC[C@@H]1n1c(-c2ccccc2F)nc2cnc(-c3nc[nH]n3)cc21` [Example 434, 5-chloro-N-((1R,2R,3S)-3-(2-(2-fluorophenyl)-6-(1H-1,2,4-triazol-3-yl)-1H-imidazo[4,5-c]pyridin-1-yl)-2-methoxycyclohexyl)thiazole-2-carboxamide] the “BCAT2 Cell Inhibition” value [1] was “E” and the “BCAT2 Enzyme Inhibition” value [2] was “E”.
`COc1cc2c(cn1)nc(-c1ccccc1F)n2[C@H]1C[C@H](O)C[C@@H](NC(=O)c2ncc(Cl)s2)C1` [Example 277, 5-chloro-N-((1S,3R,5R)-3-(2-(2-fluorophenyl)-6-methoxy-1H-imidazo[4,5-c]pyridin-1-yl)-5-hydroxycyclohexyl)thiazole-2-carboxamide] was tested, and the “BCAT2 Cell Inhibition” value [1] was “E” and the IC50 [2] was > 1000 nM.
With `CC(C)(C)Cc1nc2cnc(-c3ccccn3)cc2n1[C@H]1CCC[C@@H](NC(=O)c2ncc(Cl)s2)[C@@H]1O` [Example 390, 5-chloro-N-((1R,2S,3S)-2-hydroxy-3-(2-neopentyl-6-(pyridin-2-yl)-1H-imidazo[4,5-c]pyridin-1-yl)cyclohexyl)thiazole-2-carboxamide] the IC50 [1] was > 1000 nM and the IC50 [2] was 100 to 500 nM.
In the case of `CC(C)Cc1nc2cnc(-c3nc[nH]n3)cc2n1[C@H]1C[C@H](O)C[C@@H](NC(=O)c2ncc(Cl)s2)C1` [Example 257, 5-chloro-N-((1S,3R,5R)-3-hydroxy-5-(2-isobutyl-6-(1H-1,2,4-triazol-3-yl)-1H-imidazo[4,5-c]pyridin-1-yl)cyclohexyl)thiazole-2-carboxamide], the “BCAT2 Cell Inhibition” value [1] is reported as “E” and the IC50 [2] is reported as 500 to 1000 nM.
For `O=C(N[C@H]1CCC[C@@H](n2c(-c3ccccc3F)nc3ccc(-c4ncco4)cc32)[C@@H]1O)c1ncc(Cl)s1` [Example 465, 5-chloro-N-((1S,2R,3R)-3-(2-(2-fluorophenyl)-6-(oxazol-2-yl)-1H-benzo[d]imidazol-1-yl)-2-hydroxycyclohexyl)thiazole-2-carboxamide], the IC50 [1] was ≤ 100 nM and the IC50 [2] was ≤ 100 nM.
With `CC(C)Cc1nc2cnc(N3CCC[C@H]3C(N)=O)cc2n1[C@@H]1CCC[C@H](NC(=O)c2ncc(Cl)s2)C1` [Example 307, N-((1S,3R)-3-(6-((S)-2-carbamoylpyrrolidin-1-yl)-2-isobutyl-1H-imidazo[4,5-c]pyridin-1-yl)cyclohexyl)-5-chlorothiazole-2-carboxamide] the “BCAT2 Cell Inhibition” value [1] was “E” and the IC50 [2] was > 1000 nM.
In the case of `CC(C)Cc1nc2cnc(-c3ccccn3)cc2n1[C@@H]1C[C@H](NC(=O)c2ncc(Cl)s2)CN(C)C1` [Example 263, 5-chloro-N-((3S,5R)-5-(2-isobutyl-6-(pyridin-2-yl)-1H-imidazo[4,5-c]pyridin-1-yl)-1-methylpiperidin-3-yl)thiazole-2-carboxamide], the “BCAT2 Cell Inhibition” value [1] is reported as “E” and the IC50 [2] is reported as > 1000 nM.
For `CC(C)Cc1nc2cnc(-n3cncn3)cc2n1[C@@H]1CCC[C@H](NC(=O)c2ncc(Cl)s2)C1` [Example 323, 5-chloro-N-((1S,3R)-3-(2-isobutyl-6-(1H-1,2,4-triazol-1-yl)-1H-imidazo[4,5-c]pyridin-1-yl)cyclohexyl)thiazole-2-carboxamide], the IC50 [1] was > 1000 nM and the IC50 [2] was 100 to 500 nM.
For `CC(C)Cc1nc2cnc(N3CCC[C@H]3C(C)(C)O)cc2n1[C@@H]1CCC[C@H](NC(=O)c2ncc(Cl)s2)C1` [Example 193, 5-chloro-N-((1S,3R)-3-(6-((S)-2-(2-hydroxypropan-2-yl)pyrrolidin-1-yl)-2-isobutyl-1H-imidazo[4,5-c]pyridin-1-yl)cyclohexyl)thiazole-2-carboxamide], the “BCAT2 Cell Inhibition” value [1] was “E” and the IC50 [2] was > 1000 nM.
`O=C(N[C@@H]1CCC[C@H](n2c(-c3ccccc3F)nc3cnc(-c4ccn[nH]4)cc32)[C@H]1O)c1ncc(Cl)s1` [Example 239, 5-chloro-N-((1R,2S,3S)-3-(2-(2-fluorophenyl)-6-(1H-pyrazol-5-yl)-1H-imidazo[4,5-c]pyridin-1-yl)-2-hydroxycyclohexyl)thiazole-2-carboxamide] gave an IC50 [1] of 500 to 1000 nM and an IC50 [2] of 100 to 500 nM.
`N#Cc1ccc(-c2nc3cnc(-c4nc[nH]n4)cc3n2[C@@H]2CCC[C@H](NC(=O)c3ccc(Cl)s3)C2)c(F)c1` [Example 353, 5-chloro-N-((1S,3R)-3-(2-(4-cyano-2-fluorophenyl)-6-(1H-1,2,4-triazol-3-yl)-1H-imidazo[4,5-c]pyridin-1-yl)cyclohexyl)thiophene-2-carboxamide] was tested, and the IC50 [1] was > 1000 nM and the IC50 [2] was > 1000 nM.
